Consider five compounds from patent publication US20100222269A1, “IMPROVED DERIVATIVES OF AMYLIN” (priority 2007, published 2010).

Like-named read-outs stand apart in the source and are kept apart here. Positions of bridges follow the written chain, without caps; N, C: chain ends. Residues, ends and D or L forms follow the SMILES beside them. Groups on a side chain read outwards from the residue. *: point of attachment. C20 diacid = O=C(O)CCCCCCCCCCCCCCCCCCC(=O)*; C18 diacid = O=C(O)CCCCCCCCCCCCCCCCC(=O)*; AEEA = NCCOCCOCC(=O)O

The target of the test is T1, Amylin 3(a) receptor (human calcitonin receptor (CTa) with RAMP-3) (Homo sapiens, UniProt O60896+P30988).
T1 construct: expressed in transfected cells; host or cells: BHK570 (baby hamster kidney) cells, stably transfected, with CRE-luciferase reporter
T1 sequence (O60896 24-148): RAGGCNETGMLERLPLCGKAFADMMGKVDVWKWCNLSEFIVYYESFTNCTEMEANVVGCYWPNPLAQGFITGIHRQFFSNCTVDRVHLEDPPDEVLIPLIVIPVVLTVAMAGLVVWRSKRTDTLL
T1 sequence (P30988 25-474): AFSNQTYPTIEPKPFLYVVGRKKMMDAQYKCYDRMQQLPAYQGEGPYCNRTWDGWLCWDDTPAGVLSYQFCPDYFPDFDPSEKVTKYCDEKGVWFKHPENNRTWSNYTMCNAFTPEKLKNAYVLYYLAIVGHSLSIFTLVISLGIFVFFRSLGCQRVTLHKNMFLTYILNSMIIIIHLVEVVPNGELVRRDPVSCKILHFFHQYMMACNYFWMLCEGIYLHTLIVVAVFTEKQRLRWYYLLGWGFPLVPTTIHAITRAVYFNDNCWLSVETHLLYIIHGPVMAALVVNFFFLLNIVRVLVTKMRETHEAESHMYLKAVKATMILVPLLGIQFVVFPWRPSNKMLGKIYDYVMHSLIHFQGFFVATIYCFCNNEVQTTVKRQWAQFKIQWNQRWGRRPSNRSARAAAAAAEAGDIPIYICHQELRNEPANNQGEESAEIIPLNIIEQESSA
Description: Amylin luciferase assay (CRE-luciferase reporter in BHK Amylin 3(a)//CRE-luc cells). The class given is cell-based. An excerpt: It has previously been published (Poyner D R et al 2002, Pharmacological Reviews 54(2) 233-246) that activation of Amylin receptors (coexpression of Calcitonin receptor and receptor activity modifying peptides RAMPs) by Amylin leads to an increase in the intracellular concentration of cAMP. Consequently, transcription is activated at promotors containing multiple copies of the cAMP response element (CRE). It is thus possible to measure Amylin activity by use of a CRE luciferase reporter gene introduced into BHK cells also expressing an Amylin receptor.
2. Construction of an Amylin 3(a)/CRE-luc Cell Line
A BHK570 cell line stably transfected with the human calcitonin receptor (CTa) and a CRE-responsive luciferase reportergene. The cell line was further transfected with RAMP-3, using standard methods. This turns the Calcitonin receptor into an Amylin 3(a) receptor. Methotrexate, Neomycin, and Hygromycin are selection markers for luciferase, the Calcitonin receptor, and RAMP-3, respectively.
3. Amylin Luciferase Assay
To perform activity assays, BHK Amylin 3(a)//CRE-luc cells were seeded in white 96 well culture plates at a density of about 20.000 cells/well. The cells were in 100 μl growth medium (DMEM with 10% FBS, 1% Pen/Strep, 1 mM Na-pyruvate, 250 nM Methotrexate, 500 μg/ml Neomycin, and 400 μg/ml Hygromycin). After incubation overnight at 37° C. and 5% CO2, the growth medium was replaced by 50 μl/well assay medium (DMEM (without phenol red), Glumamax™, 10% FBS, and 10 mM Hepes, pH 7,4). Further, 50 μl/well of standard or sample in assay buffer were added. After 4 hours incubation at 37° C. and 5% CO2, the assay medium with standard or sample were removed and replaced by 100 μl/well PBS. Further, 100 μl/well LucLite™ was added. The plates were sealed and incubated at room temperature for 30 minutes. Finally, luminescence was measured on a TopCounter (Packard) in SPC (single photon counting) mode.
On the technique in general: A reporter such as luciferase makes a cellular process visible.

Setting [1] is: BHK570 cells with human calcitonin receptor (CTa), RAMP-3 and CRE-luciferase reporter, 4 hours incubation, read-out: Potency luciferase assay.

As to `CC[C@H](C)[C@H](NC(=O)[C@@H]1CCCN1C(=O)CNC(=O)[C@H](Cc1ccccc1)NC(=O)[C@H](CC(N)=O)NC(=O)[C@H](CC(N)=O)NC(=O)[C@H](CO)NC(=O)[C@H](CO)NC(=O)[C@H](Cc1c[nH]cn1)NC(=O)[C@@H](NC(=O)[C@H](CC(C)C)NC(=O)[C@H](Cc1ccccc1)NC(=O)[C@H](CC(N)=O)NC(=O)[C@H](C)NC(=O)[C@H](CC(C)C)NC(=O)[C@H](CCCNC(=N)N)NC(=O)[C@H](CCC(N)=O)NC(=O)[C@@H](NC(=O)[C@H](C)NC(=O)[C@@H]1CSSC[C@H](NC(=O)[C@@H](N)CCCCN)C(=O)N[C@@H](CCCCNC(=O)CCCCCCCCCCCCCCCCC(=O)O)C(=O)N[C@@H]([C@@H](C)O)C(=O)N[C@@H](C)C(=O)N[C@@H]([C@@H](C)O)C(=O)N1)[C@@H](C)O)C(C)C)C(=O)N[C@@H](CC(C)C)C(=O)N1CCC[C@H]1C(=O)N1CCC[C@H]1C(=O)N[C@H](C(=O)N[C@@H](CC(N)=O)C(=O)N[C@H](C(=O)NCC(=O)N[C@@H](CO)C(=O)N[C@@H](CC(N)=O)C(=O)N[C@H](C(=O)N[C@@H](Cc1ccc(O)cc1)C(N)=O)[C@@H](C)O)C(C)C)[C@@H](C)O` [Example 2, N-epsilon3-(17-carboxyheptadecanoyl)-[Lys3]-pramlintide (1-37)] (H-KCK(C18 diacid)TATCATQRLANFLVHSSNNFGPILPPTNVGSNTY-NH2; disulfide 2-7; N-terminus and C-terminus assumed), the EC50 under setting [1] is 0.05 nM.

As for `CC[C@H](C)[C@H](NC(=O)[C@@H]1CCCN1C(=O)CNC(=O)[C@H](Cc1ccccc1)NC(=O)[C@H](CC(N)=O)NC(=O)[C@H](CC(N)=O)NC(=O)[C@H](CO)NC(=O)[C@H](CO)NC(=O)[C@H](Cc1c[nH]cn1)NC(=O)[C@@H](NC(=O)[C@H](CC(C)C)NC(=O)[C@H](Cc1ccccc1)NC(=O)[C@H](CC(N)=O)NC(=O)[C@H](C)NC(=O)[C@H](CC(C)C)NC(=O)[C@H](CCCNC(=N)N)NC(=O)[C@H](CCC(N)=O)NC(=O)[C@@H](NC(=O)[C@H](C)NC(=O)[C@@H]1CSSC[C@H](NC(=O)[C@@H](N)CCCCN)C(=O)N[C@@H](CCCCNC(=O)COCCOCCNC(=O)COCCOCCNC(=O)CCCCCCCCCCCCCCCCC(=O)O)C(=O)N[C@@H]([C@@H](C)O)C(=O)N[C@@H](C)C(=O)N[C@@H]([C@@H](C)O)C(=O)N1)[C@@H](C)O)C(C)C)C(=O)N[C@@H](CC(C)C)C(=O)N1CCC[C@H]1C(=O)N1CCC[C@H]1C(=O)N[C@H](C(=O)N[C@@H](CC(N)=O)C(=O)N[C@H](C(=O)NCC(=O)N[C@@H](CO)C(=O)N[C@@H](CC(N)=O)C(=O)N[C@H](C(=O)N[C@@H](Cc1ccc(O)cc1)C(N)=O)[C@@H](C)O)C(C)C)[C@@H](C)O` [Example 3, N-epsilon3-(2-{2-[2-(2-{2-[2-(17-carboxyheptadecanoylamino)ethoxy]ethoxy}acetylamino)ethoxy]ethoxy}acetyl)-[Lys3]-pramlintide (1-37)] (H-KCK([AEEA-AEEA-C18 diacid])TATCATQRLANFLVHSSNNFGPILPPTNVGSNTY-NH2; disulfide 2-7), the EC50 under setting [1] worked out at 0.1 nM. As for `CC[C@H](C)[C@H](NC(=O)[C@@H]1CCCN1C(=O)CNC(=O)[C@H](Cc1ccccc1)NC(=O)[C@H](CC(N)=O)NC(=O)[C@H](CC(N)=O)NC(=O)[C@H](CO)NC(=O)[C@H](CO)NC(=O)[C@H](Cc1c[nH]cn1)NC(=O)[C@@H](NC(=O)[C@H](CC(C)C)NC(=O)[C@H](Cc1ccccc1)NC(=O)[C@H](CC(N)=O)NC(=O)[C@H](C)NC(=O)[C@H](CC(C)C)NC(=O)[C@H](CCCNC(=N)N)NC(=O)[C@H](CCC(N)=O)NC(=O)[C@@H](NC(=O)[C@H](C)NC(=O)[C@@H]1CSSC[C@H](NC(=O)[C@@H](N)CCCCN)C(=O)N[C@@H](CC(N)=O)C(=O)N[C@@H]([C@@H](C)O)C(=O)N[C@@H](C)C(=O)N[C@@H]([C@@H](C)O)C(=O)N1)[C@@H](C)O)C(C)C)C(=O)N[C@@H](CC(C)C)C(=O)N1CCC[C@H]1C(=O)N[C@@H](CCCCNC(=O)COCCOCCNC(=O)COCCOCCNC(=O)CCCCCCCCCCCCCCCCCCC(=O)O)C(=O)N[C@H](C(=O)N[C@@H](CC(N)=O)C(=O)N[C@H](C(=O)NCC(=O)N[C@@H](CO)C(=O)N[C@@H](CC(N)=O)C(=O)N[C@H](C(=O)N[C@@H](Cc1ccc(O)cc1)C(N)=O)[C@@H](C)O)C(C)C)[C@@H](C)O` [Example 6, N-epsilon29-(2-{2-[2-(2-{2-[2-(19-carboxynonadecanoylamino)ethoxy]ethoxy}acetylamino)ethoxy]ethoxy}acetyl)-[Lys29]-pramlintide (1-37)] (H-KCNTATCATQRLANFLVHSSNNFGPILPK([AEEA-AEEA-C20 diacid])TNVGSNTY-NH2; disulfide 2-7; N-terminus and C-terminus assumed), the EC50 under setting [1] was 0.2 nM.

With `CC[C@H](C)[C@H](NC(=O)[C@@H]1CCCN1C(=O)CNC(=O)[C@H](Cc1ccccc1)NC(=O)[C@H](CC(N)=O)NC(=O)[C@H](CCCCNC(=O)COCCOCCNC(=O)COCCOCCNC(=O)CCCCCCCCCCCCCCCCCCC(=O)O)NC(=O)[C@H](CO)NC(=O)[C@H](CO)NC(=O)[C@H](Cc1c[nH]cn1)NC(=O)[C@@H](NC(=O)[C@H](CC(C)C)NC(=O)[C@H](Cc1ccccc1)NC(=O)[C@H](CC(N)=O)NC(=O)[C@H](C)NC(=O)[C@H](CC(C)C)NC(=O)[C@H](CCCNC(=N)N)NC(=O)[C@H](CCC(N)=O)NC(=O)[C@@H](NC(=O)[C@H](C)NC(=O)[C@@H]1CSSC[C@H](NC(=O)[C@@H](N)CCCCN)C(=O)N[C@@H](CC(N)=O)C(=O)N[C@@H]([C@@H](C)O)C(=O)N[C@@H](C)C(=O)N[C@@H]([C@@H](C)O)C(=O)N1)[C@@H](C)O)C(C)C)C(=O)N[C@@H](CC(C)C)C(=O)N1CCC[C@H]1C(=O)N1CCC[C@H]1C(=O)N[C@H](C(=O)N[C@@H](CC(N)=O)C(=O)N[C@H](C(=O)NCC(=O)N[C@@H](CO)C(=O)N[C@@H](CC(N)=O)C(=O)N[C@H](C(=O)N[C@@H](Cc1ccc(O)cc1)C(N)=O)[C@@H](C)O)C(C)C)[C@@H](C)O` [Example 7, N-epsilon2′-(2-{2-[2-(2-{2-[2-(19-carboxynonadecanoylamino)ethoxy]ethoxy}acetylamino)ethoxy]ethoxy}acetyl)-[Lys21]-pramlintide (1-37)] (H-KCNTATCATQRLANFLVHSSK([AEEA-AEEA-C20 diacid])NFGPILPPTNVGSNTY-NH2; disulfide 2-7; N-terminus and C-terminus assumed), the EC50 under setting [1] is 0.1 nM. Regarding `CC[C@H](C)[C@H](NC(=O)[C@@H]1CCCN1C(=O)CNC(=O)[C@H](Cc1ccccc1)NC(=O)[C@H](CC(N)=O)NC(=O)[C@H](CC(N)=O)NC(=O)[C@H](CO)NC(=O)[C@H](CO)NC(=O)[C@H](Cc1c[nH]cn1)NC(=O)[C@H](CCCCNC(=O)COCCOCCNC(=O)COCCOCCNC(=O)CCCCCCCCCCCCCCCCCCC(=O)O)NC(=O)[C@H](CC(C)C)NC(=O)[C@H](Cc1ccccc1)NC(=O)[C@H](CC(N)=O)NC(=O)[C@H](C)NC(=O)[C@H](CC(C)C)NC(=O)[C@H](CCCNC(=N)N)NC(=O)[C@H](CCC(N)=O)NC(=O)[C@@H](NC(=O)[C@H](C)NC(=O)[C@@H]1CSSC[C@H](NC(=O)[C@@H](N)CCCCN)C(=O)N[C@@H](CC(N)=O)C(=O)N[C@@H]([C@@H](C)O)C(=O)N[C@@H](C)C(=O)N[C@@H]([C@@H](C)O)C(=O)N1)[C@@H](C)O)C(=O)N[C@@H](CC(C)C)C(=O)N1CCC[C@H]1C(=O)N1CCC[C@H]1C(=O)N[C@H](C(=O)N[C@@H](CC(N)=O)C(=O)N[C@H](C(=O)NCC(=O)N[C@@H](CO)C(=O)N[C@@H](CC(N)=O)C(=O)N[C@H](C(=O)N[C@@H](Cc1ccc(O)cc1)C(N)=O)[C@@H](C)O)C(C)C)[C@@H](C)O` [Example 8, N-epsilon17-(2-{2-[2-(2-{2-[2-(19-carboxynonadecanoylamino)ethoxy]ethoxy}acetylamino)ethoxy]ethoxy}acetyl)-[Lys17]-pramlintide (1-37)] (H-KCNTATCATQRLANFLK([AEEA-AEEA-C20 diacid])HSSNNFGPILPPTNVGSNTY-NH2; disulfide 2-7; N-terminus assumed), the EC50 is 0.1 nM.
